# In patent publication US9713613B2, “Methods and compositions for the treatment of cancer and related hyperproliferative disorders” (priority 2007, dated 2017):
# Tested on: RPMI8226 cells
# Test: RPMI8226 cell growth, MTT assay
# Type: cell-based, human
# Conditions: 5 μM, 48 hours
# Method: 10,000 MOLT-4 cells (FIGS. 35A-35C) and 20,000 RPM18226 cells (FIGS. 35D-35F) were seeded onto 96 well plate in RPMI 1640 medium containing 5% FBS or fat-free charcoal treated serum (FF-FBS) for 24 hours at 37 C. MOLT-4 and RPM18226 cells were treated for additional 48 hours with different concentrations of compound 19 (None control without DMSO, Vehicle with DMSO, 1, 2, 5, 10 and 20 μM in DMSO; RPM18226 cells also were treated with 3 μM in DMSO). At the end of 48 hours cells were subjected to MTT assay to determine viability. Values are depicted as means±SD; *P<0.05.
# 20,000 MOLT-4 cells (FIGS. 36A-36C) and 20,000 RPM18226 cells (FIGS. 36D-36F) cells were seeded onto 96 well plates in RPMI 1640 Medium containing 5% Fetal bovine serum (FBS) or 5% fat free charcoal treated serum (FF-FBS) for 24 hours at 37 C. Cells then were treated for additional 48 hours with different concentrations of compound 17 (None control without DMSO, Vehicle with DMSO, 1, 2, 3, 5, 10 and 20 μM in DMSO). At the end of the 48 hours treatment cells were subjected to MTT assay to determine viability. Values are depicted as means±SD (n=3); **P<0.001; ***P<0.0001.
# RPM18226 cells were grown under the same conditions as the MOLT-4 cells. 20,000 cells were seeded into 96 well plates for 24 hrs prior to treatment with increasing concentrations of compound 19 as described for MOLT-4 cells. […]
smiles,measurement,value
"CCCc1cc(-c2nc(-c3ccc(NS(C)(=O)=O)cc3)cs2)ccn1 [Compound 19, N-(4-(2-(2-propylpyridin-4-yl)thiazol-4-yl)phenyl)methanesulfonamide]",growth inhibition in 5% FF FBS relative to 5% FBS,about 1.5
